Numbers after ± are expanded uncertainties.
Test: activity coefficient (dimensionless); of the first substance listed, at infinite dilution; xn = mol fraction of the nth substance listed
Details: Liquid, Chromatography, x1 = 0

Row | Structure (SMILES) | activity coefficient (303.15 K) | activity coefficient (313.15 K) | activity coefficient (323.15 K) | activity coefficient (333.15 K) | activity coefficient (343.15 K) | activity coefficient (353.15 K) | activity coefficient (363.15 K)
1 | Cc1ccccc1C [1,2-dimethylbenzene] + C[n+]1ccn(CCO)c1.F[B-](F)(F)F | 28.9 ± 3 | 28.2 ± 3 | 27.7 ± 2.9 | 27 ± 2.8 | 26.5 ± 2.8 | 25.9 ± 2.7 | 25.4 ± 2.7
2 | Cc1cccc(C)c1 [1,3-dimethylbenzene] + C[n+]1ccn(CCO)c1.F[B-](F)(F)F | 37.2 ± 3.9 | 36.3 ± 3.8 | 35.5 ± 3.7 | 34.7 ± 3.7 | 34 ± 3.6 | 33.2 ± 3.5 | 32.5 ± 3.4
3 | Cc1ccc(C)cc1 [1,4-dimethylbenzene] + C[n+]1ccn(CCO)c1.F[B-](F)(F)F | 35.4 ± 3.7 | 34.7 ± 3.6 | 33.9 ± 3.6 | 33.2 ± 3.5 | 32.5 ± 3.4 | 32 ± 3.4 | 31.4 ± 3.3
4 | CC(C)CC(C)(C)C [2,2,4-trimethylpentane] + C[n+]1ccn(CCO)c1.F[B-](F)(F)F | 412 ± 44 | 523 ± 55 | 731 ± 77 | 962 ± 100 | 1300 ± 140 | 1700 ± 180 | 2310 ± 240
5 | c1ccccc1 [benzene] + C[n+]1ccn(CCO)c1.F[B-](F)(F)F | 9.13 ± 0.96 | 9.11 ± 0.96 | 9.1 ± 0.96 | 9.08 ± 0.95 | 9.06 ± 0.95 | 9.05 ± 0.95 | 9.04 ± 0.95
6 | CCc1ccccc1 [ethylbenzene] + C[n+]1ccn(CCO)c1.F[B-](F)(F)F | 42.1 ± 4.4 | 40.6 ± 4.3 | 39 ± 4.1 | 37.9 ± 4 | 36.7 ± 3.9 | 35.9 ± 3.8 | 35 ± 3.7
7 | CCCCCCC [heptane] + C[n+]1ccn(CCO)c1.F[B-](F)(F)F | 620 ± 65 | 850 ± 90 | 1200 ± 130 | 1610 ± 170 | 2190 ± 230 | 2980 ± 310 | 4220 ± 450
8 | Cc1ccccc1 [toluene] + C[n+]1ccn(CCO)c1.F[B-](F)(F)F | 18.3 ± 1.9 | 18 ± 1.9 | 17.7 ± 1.9 | 17.5 ± 1.8 | 17.3 ± 1.8 | 17.2 ± 1.8 | 16.9 ± 1.8

Continued, values first:

Row | activity coefficient (303.15 K) | activity coefficient (313.15 K) | activity coefficient (323.15 K) | activity coefficient (333.15 K) | activity coefficient (343.15 K) | activity coefficient (353.15 K) | activity coefficient (363.15 K) | Structure (SMILES)
9 | 339 ± 36 | 418 ± 44 | 488 ± 52 | 593 ± 63 | 689 ± 73 | 803 ± 85 | 934 ± 99 | C1CCCCC1 [cyclohexane] + C[n+]1ccn(CCO)c1.F[B-](F)(F)F
10 | 123 ± 13 | 118 ± 12 | 114 ± 12 | 110 ± 12 | 106 ± 11 | 103 ± 11 | 100 ± 11 | C1=CCCCC1 [cyclohexene] + C[n+]1ccn(CCO)c1.F[B-](F)(F)F
11 | 328 ± 35 | 373 ± 39 | 421 ± 44 | 486 ± 51 | 546 ± 58 | 611 ± 64 | 677 ± 71 | CC1CCCCC1 [methylcyclohexane] + C[n+]1ccn(CCO)c1.F[B-](F)(F)F
12 | 546 ± 58 | 564 ± 60 | 582 ± 61 | 599 ± 63 | 616 ± 65 | 633 ± 67 | 651 ± 69 | CCCCCCCCC [nonane] + C[n+]1ccn(CCO)c1.F[B-](F)(F)F
13 | 498 ± 52 | 532 ± 56 | 574 ± 61 | 615 ± 65 | 659 ± 70 | 709 ± 75 | 760 ± 80 | CCCCCCCC [octane] + C[n+]1ccn(CCO)c1.F[B-](F)(F)F
14 | 15.3 ± 1.6 | 15.1 ± 1.6 | 14.8 ± 1.6 | 14.6 ± 1.5 | 14.4 ± 1.5 | 14.2 ± 1.5 | 14 ± 1.5 | C=Cc1ccccc1 [styrene] + C[n+]1ccn(CCO)c1.F[B-](F)(F)F
